In patent publication US8946205B2, “1,2,4-triazolo[4,3-a]pyridine derivatives and their use as positive allosteric modulators of mGluR2 receptors” (Janssen Pharmaceuticals, Inc., priority 2009, dated 2015):

Columns and labels:
[1] = molecular target: T1, human mGluR2 receptor (Homo sapiens, UniProt Q14416); assay: [35S]GTPγS binding assay (PAM assay, membranes from CHO cells transfected with the human mGluR2 receptor); format: biochemical; details: in presence of glutamate at EC20; pEC50 = -log EC50 (mol/L); read-out: GTPγS-hR2 PAM pEC50 (converted)
T1 construct: expressed in transfected cells; host or cells: CHO cells (membranes)
T1 sequence (Q14416 19-872): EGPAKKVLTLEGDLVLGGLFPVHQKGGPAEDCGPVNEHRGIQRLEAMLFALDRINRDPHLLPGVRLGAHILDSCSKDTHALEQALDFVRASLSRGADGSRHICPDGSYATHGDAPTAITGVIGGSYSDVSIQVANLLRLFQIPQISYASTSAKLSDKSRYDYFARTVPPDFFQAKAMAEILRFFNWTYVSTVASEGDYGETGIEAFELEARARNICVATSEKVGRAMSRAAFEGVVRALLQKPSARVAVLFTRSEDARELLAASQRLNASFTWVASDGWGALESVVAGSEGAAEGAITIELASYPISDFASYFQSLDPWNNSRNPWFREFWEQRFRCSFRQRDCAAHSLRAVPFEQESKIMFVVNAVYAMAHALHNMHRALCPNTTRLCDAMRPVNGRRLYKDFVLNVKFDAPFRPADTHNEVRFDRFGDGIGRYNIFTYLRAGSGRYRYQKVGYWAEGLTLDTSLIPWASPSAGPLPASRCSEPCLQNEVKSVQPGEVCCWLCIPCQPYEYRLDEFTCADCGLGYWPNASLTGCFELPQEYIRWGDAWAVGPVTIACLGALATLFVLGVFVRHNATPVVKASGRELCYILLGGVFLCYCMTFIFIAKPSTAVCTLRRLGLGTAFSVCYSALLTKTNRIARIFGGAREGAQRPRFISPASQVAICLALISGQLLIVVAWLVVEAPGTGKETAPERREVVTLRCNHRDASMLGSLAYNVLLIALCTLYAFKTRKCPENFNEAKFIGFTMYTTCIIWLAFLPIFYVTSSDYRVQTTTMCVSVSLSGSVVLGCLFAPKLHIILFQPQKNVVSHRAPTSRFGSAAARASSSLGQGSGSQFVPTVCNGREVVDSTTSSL
Description: The [^35S]GTPγS binding assay is a functional membrane-based assay used to study G-protein coupled receptor (GPCR) function whereby incorporation of a non-hydrolysable form of GTP, [^35S]GTPγS (guanosine 5′-triphosphate, labelled with […] ^35S), is measured. The G-protein α subunit catalyzes the exchange of guanosine 5′-diphosphate (GDP) by guanosine triphosphate (GTP) and on activation of the GPCR by an agonist, [^35S]GTPγS, becomes incorporated and cannot be cleaved to continue the exchange cycle (Harper (1998) Current Protocols in Pharmacology 2.6.1-10, John Wiley & Sons, Inc.). […] Here we describe the use of the [^35S]GTPγS binding assay using membranes from cells transfected with the human mGluR2 receptor and adapted from Schaffhauser et al. ((2003) Molecular Pharmacology 4:798-810) for the detection of the positive allosteric modulation (PAM) properties of the compounds of this invention.
CHO-cells were cultured to pre-confluence and stimulated with 5 mM butyrate for 24 h, prior to washing in PBS, and then collected by scraping in homogenisation buffer (50 mM Tris-HCl buffer, pH 7.4, 4° C.). Cell lysates were homogenized briefly using an ultra-turrax homogenizer. The homogenate was centrifuged at 16,000 RPM (Sorvall RC-5C plus rotor SS-34) for 10 minutes and the supernatant discarded. The pellet was resuspended in 5 mM Tris-HCl, pH 7.4 and centrifuged again (18,000 RPM, 20 min, 4° C.). The final pellet was resuspended in 50 mM Tris-HCl, pH 7.4 and stored at −80° C. in appropriate aliquots before use. Protein concentration was determined by the Bradford method (Bio-Rad, USA) with bovine serum albumin as standard.
Measurement of mGluR2 positive allosteric modulatory activity of test compounds was performed as follows. Test compounds and glutamate were diluted in assay buffer containing 10 mM HEPES acid, 10 mM HEPES salt, pH 7.4, 100 mM NaCl, 3 mM MgCl2 and 10 μM GDP. Human mGlu2 receptor-containing membranes were thawed on ice and diluted in assay buffer supplemented with 14 μg/ml saponin. Membranes were pre-incubated with compound alone or together with a predefined (˜EC20) concentration of glutamate (PAM assay) for 30 min at 30° C. After addition of [^35S]GTPγS (f.c. 0.1 nM) microplates were shaken briefly and further incubated to allow [^35S]GTPγS incorporation on activation (30 minutes, 30° C.). Final assay mixtures contained 7 μg of membrane protein in 10 mM HEPES acid, 10 mM HEPES salt, pH 7.4, 100 mM NaCl, 3 mM MgCl2,10 μM GDP and 10 μg/ml saponin. Total reaction volume was 200 μl. Reactions were terminated by rapid filtration through Unifilter-96 GF/B filter plates (Packard, Meriden, Conn.) using a 96-well Packard filtermate harvester. Filters were washed 6 times with ice-cold 10 mM NaH2PO4/10 mM Na2HPO4, pH 7.4. Filters were then air-dried, and 40 μl of liquid scintillation cocktail (Microscint-O) was added to each well. Membrane-bound radioactivity was counted in a Microplate Scintillation and Luminescence Counter from Packard.
The concentration-response curves of representative compounds of the present invention—obtained in the presence of EC20 of mGluR2 agonist glutamate to determine positive allosteric modulation (PAM)—were generated using the Lexis software interface (developed at J&J). Data were calculated as % of the control glutamate response, defined as the maximal response that is generated upon addition of glutamate alone. Sigmoid concentration-response curves plotting these percentages versus the log concentration of the test compound were analyzed using non-linear regression analysis. The concentration producing half-maximal effect is then calculated as EC50. The pEC50 values below are calculated as the −log EC50 (wherein EC50 is expressed in mol/L). […]

SMILES | EC50 [1] [nM] | melting point [°C]
Clc1c(-c2ccc3c(ccn3-c3ccccn3)c2)ccn2c(CC3CC3)nnc12 [Compound 16] | 67.6 | 197.1
O[C@H]1CC[C@H](n2ccc3cc(-c4ccn5c(CC6CC6)nnc5c4Cl)ccc32)CC1 [Compound 10] | 52.5 | > 300
Cc1ccc(-n2ccc3cc(-c4ccn5c(CC6CC6)nnc5c4C(F)(F)F)ccc32)cn1 [Compound 36] | 9.33 | 204
Cc1ccc(-n2ccc3cc(-c4ccn5c(CC6CC6)nnc5c4C4CC4)ccc32)cn1 [Compound 37] | 39.8 | > 300
FC(F)(F)Cc1nnc2c(Cl)c(-c3ccc4c(ccn4-c4ccccn4)c3)ccn12 [Compound 1] | 43.7 | > 300
CCOCc1nnc2c(Cl)c(-c3ccc4c(ccn4-c4ccccn4)c3)ccn12 [Compound 18] | 288 | 235
CCOCc1nnc2c(Cl)c(-c3ccc4c(ccn4-c4ccc(C)nc4)c3)ccn12 [Compound 27] | 56.2 | 188.9
Cc1ccc(-n2ccc3cc(-c4ccn5c(CC6CC6)nnc5c4C)ccc32)cn1 [Compound 35, 8-Methyl-3-cyclopropylmethyl-7-[1-(2-methylpyridin-5-yl)-1H-indol-5-yl]-[1,2,4]triazolo[4,3-a]pyridine] | 70.8 | 263.3
CCOCc1nnc2c(C(F)(F)F)c(-c3ccc4c(ccn4-c4ccc(C)nc4)c3)ccn12 [Compound 32] | 17.4 | 163.1
CCOCc1nnc2c(C)c(-c3ccc4c(ccn4-c4ccc(C)nc4)c3)ccn12 [Compound 49] | 174 | 108.5
Fc1cnccc1-n1ccc2cc(-c3ccn4c(CC5CC5)nnc4c3Cl)ccc21 [Compound 42, 8-Chloro-3-cyclopropylmethyl-7-[1-(3-fluoro-pyridin-4-yl)-1H-indol-5-yl]-[1,2,4]triazolo[4,3-a]pyridine] | 28.8 | > 300
FC(F)(F)c1c(-c2cnc3[nH]ccc3c2)ccn2c(CC3CC3)nnc12 [Compound 24] | 1410 | > 300
CCOCc1nnc2c(Cl)c(-c3ccc4c(ccn4-c4cccnc4)c3)ccn12 [Compound 26] | 182 | 233.2
Cc1cc(-n2ccc3cc(-c4ccn5c(CC6CC6)nnc5c4C(F)(F)F)ccc32)ccn1 [Compound 46] | 8.13 | > 300
Cc1cc(-n2ccc3cc(-c4ccn5c(CC6CC6)nnc5c4Cl)ccc32)ccn1 [Compound 47] | 39.8 | > 300
Clc1cc(-c2ccn3c(CC4CC4)nnc3c2Cl)cc2cc[nH]c12 [Compound 8] | 25.1 | 233.5
CCOCc1nnc2c(Cl)c(-c3ccc4[nH]ccc4c3)ccn12 [Compound 29] | 1260 | 176.4
